Measurements published in PubChem BioAssay (NCI).
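Five compound concentrations were applied to cells in 96-well plates for 48 hours; endpoints were derived by simple linear interpolation of the resulting dose-response curve. Abbreviation: GI50, concentration required for 50% inhibition of growth. TGI: total growth inhibition.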

What was measured:
Experiment in all cases: NCI tumour cell line growth inhibition, 48 h
MOLT-4 leukemia = tested on: MOLT-4 leukemia
OVCAR-4 ovarian = tested on: OVCAR-4 ovarian
HL-60(TB) leukemia = tested on: HL-60(TB) leukemia
SK-MEL-5 melanoma = tested on: SK-MEL-5 melanoma
UACC-62 melanoma = tested on: UACC-62 melanoma
MDA-MB-435 = tested on: MDA-MB-435
HOP-92 NSCLC = tested on: HOP-92 NSCLC
U251 CNS = tested on: U251 CNS
RPMI-8226 leukemia = tested on: RPMI-8226 leukemia
HCT-116 colon = tested on: HCT-116 colon
UACC-257 melanoma = tested on: UACC-257 melanoma
SF-539 CNS = tested on: SF-539 CNS
SR leukemia = tested on: SR leukemia
NCI-H226 lung = tested on: NCI-H226 lung
A549 NSCLC = tested on: A549 NSCLC
NCI/ADR-RES ovarian = tested on: NCI/ADR-RES ovarian
T-47D breast = tested on: T-47D breast
IGROV1 ovarian = tested on: IGROV1 ovarian
MDA-MB-231 breast = tested on: MDA-MB-231 breast
ACHN renal = tested on: ACHN renal
MCF7 breast = tested on: MCF7 breast
DU-145 prostate = tested on: DU-145 prostate
SK-MEL-28 melanoma = tested on: SK-MEL-28 melanoma
TK-10 renal = tested on: TK-10 renal
SF-268 CNS = tested on: SF-268 CNS
HOP-62 NSCLC = tested on: HOP-62 NSCLC
CCRF-CEM leukemia = tested on: CCRF-CEM leukemia
786-0 renal = tested on: 786-0 renal
SW-620 colon = tested on: SW-620 colon
SNB-19 CNS = tested on: SNB-19 CNS
SK-OV-3 ovarian = tested on: SK-OV-3 ovarian
OVCAR-3 ovarian = tested on: OVCAR-3 ovarian
UO-31 renal = tested on: UO-31 renal
NCI-H460 lung = tested on: NCI-H460 lung
EKVX NSCLC = tested on: EKVX NSCLC
MALME-3M melanoma = tested on: MALME-3M melanoma
HS 578T breast = tested on: HS 578T breast
RXF 393 renal = tested on: RXF 393 renal
SF-295 CNS = tested on: SF-295 CNS
A498 renal = tested on: A498 renal
SNB-75 CNS = tested on: SNB-75 CNS
COLO 205 colon = tested on: COLO 205 colon
LOX IMVI melanoma = tested on: LOX IMVI melanoma
SK-MEL-2 melanoma = tested on: SK-MEL-2 melanoma
SN12C renal = tested on: SN12C renal
CAKI-1 renal = tested on: CAKI-1 renal
KM12 colon = tested on: KM12 colon
HCT-15 colon = tested on: HCT-15 colon
BT-549 breast = tested on: BT-549 breast
OVCAR-5 ovarian = tested on: OVCAR-5 ovarian
NCI-H522 lung = tested on: NCI-H522 lung
OVCAR-8 ovarian = tested on: OVCAR-8 ovarian
HCC-2998 colon = tested on: HCC-2998 colon
HT29 colon = tested on: HT29 colon
K-562 leukemia = tested on: K-562 leukemia
PC-3 prostate = tested on: PC-3 prostate
M14 melanoma = tested on: M14 melanoma

CN(C)CCCOc1c2ccc(Cl)cc2nc2c1oc1ccccc12
GI50 (MOLT-4 leukemia): 497 nM | TGI (MOLT-4 leukemia): 10500 nM | GI50 (OVCAR-4 ovarian): 1750 nM | TGI (OVCAR-4 ovarian): 7310 nM | GI50 (HL-60(TB) leukemia): 1830 nM | TGI (HL-60(TB) leukemia): 5880 nM | GI50 (SK-MEL-5 melanoma): 1780 nM | TGI (SK-MEL-5 melanoma): 3210 nM | GI50 (UACC-62 melanoma): 1750 nM | TGI (UACC-62 melanoma): 3610 nM | GI50 (MDA-MB-435): 1550 nM | TGI (MDA-MB-435): 3090 nM | GI50 (HOP-92 NSCLC): 584 nM | TGI (HOP-92 NSCLC): 3590 nM | GI50 (U251 CNS): 1660 nM | TGI (U251 CNS): 10700 nM | GI50 (RPMI-8226 leukemia): 2070 nM | TGI (RPMI-8226 leukemia): 7520 nM | GI50 (HCT-116 colon): 437 nM | TGI (HCT-116 colon): 10100 nM | GI50 (UACC-257 melanoma): 1850 nM | TGI (UACC-257 melanoma): 3790 nM | GI50 (SF-539 CNS): 1430 nM | TGI (SF-539 CNS): 2840 nM | GI50 (SR leukemia): 697 nM | TGI (SR leukemia): 6720 nM | GI50 (NCI-H226 lung): 2140 nM | TGI (NCI-H226 lung): 6770 nM | GI50 (A549 NSCLC): 1550 nM | TGI (A549 NSCLC): 11200 nM | GI50 (NCI/ADR-RES ovarian): 677 nM | TGI (NCI/ADR-RES ovarian): 6650 nM | GI50 (T-47D breast): 2640 nM | TGI (T-47D breast): 9870 nM | GI50 (IGROV1 ovarian): 2140 nM | TGI (IGROV1 ovarian): 12000 nM | GI50 (MDA-MB-231 breast): 1800 nM | TGI (MDA-MB-231 breast): 8490 nM | GI50 (ACHN renal): 623 nM | TGI (ACHN renal): 12500 nM | GI50 (MCF7 breast): 1170 nM | TGI (MCF7 breast): 5480 nM | GI50 (DU-145 prostate): 2260 nM | TGI (DU-145 prostate): 14000 nM | GI50 (SK-MEL-28 melanoma): 1810 nM | TGI (SK-MEL-28 melanoma): 3430 nM | GI50 (TK-10 renal): 2960 nM | TGI (TK-10 renal): 7620 nM | GI50 (SF-268 CNS): 1620 nM | TGI (SF-268 CNS): 11200 nM | GI50 (HOP-62 NSCLC): 2090 nM | TGI (HOP-62 NSCLC): 11600 nM | GI50 (CCRF-CEM leukemia): 2100 nM | TGI (CCRF-CEM leukemia): 11100 nM | GI50 (786-0 renal): 1780 nM | TGI (786-0 renal): 11200 nM | GI50 (SW-620 colon): 535 nM | TGI (SW-620 colon): 8310 nM | GI50 (SNB-19 CNS): 2370 nM | TGI (SNB-19 CNS): 11900 nM | GI50 (SK-OV-3 ovarian): 2420 nM | TGI (SK-OV-3 ovarian): 9550 nM | GI50 (OVCAR-3 ovarian): 2620 nM | TGI (OVCAR-3 ovarian): 12700 nM | GI50 (UO-31 renal): 553 nM | TGI (UO-31 renal): 3370 nM | GI50 (NCI-H460 lung): 557 nM | TGI (NCI-H460 lung): 10200 nM | GI50 (EKVX NSCLC): 2640 nM | TGI (EKVX NSCLC): 10300 nM | GI50 (MALME-3M melanoma): 1730 nM | TGI (MALME-3M melanoma): 3820 nM | GI50 (HS 578T breast): 2150 nM | TGI (HS 578T breast): 10100 nM | GI50 (RXF 393 renal): 1370 nM | TGI (RXF 393 renal): 3710 nM | GI50 (SF-295 CNS): 2180 nM | TGI (SF-295 CNS): 10800 nM | GI50 (A498 renal): 3140 nM | TGI (A498 renal): 8920 nM | GI50 (SNB-75 CNS): 1480 nM | TGI (SNB-75 CNS): 2850 nM | GI50 (COLO 205 colon): 1080 nM | TGI (COLO 205 colon): 2520 nM | GI50 (LOX IMVI melanoma): 516 nM | TGI (LOX IMVI melanoma): 1830 nM | GI50 (SK-MEL-2 melanoma): 1860 nM | TGI (SK-MEL-2 melanoma): 3530 nM | GI50 (SN12C renal): 1020 nM | TGI (SN12C renal): 11200 nM | GI50 (CAKI-1 renal): 888 nM | TGI (CAKI-1 renal): 10400 nM | GI50 (KM12 colon): 1870 nM | TGI (KM12 colon): 11900 nM | GI50 (HCT-15 colon): 1070 nM | TGI (HCT-15 colon): 10100 nM | GI50 (BT-549 breast): 2080 nM | TGI (BT-549 breast): 7230 nM | GI50 (OVCAR-5 ovarian): 2090 nM | TGI (OVCAR-5 ovarian): 8040 nM | GI50 (NCI-H522 lung): 1570 nM | TGI (NCI-H522 lung): 4610 nM | GI50 (OVCAR-8 ovarian): 1370 nM | TGI (OVCAR-8 ovarian): 10900 nM | GI50 (HCC-2998 colon): 1030 nM | TGI (HCC-2998 colon): 2530 nM | GI50 (HT29 colon): 713 nM | TGI (HT29 colon): 3000 nM | GI50 (K-562 leukemia): 620 nM | TGI (K-562 leukemia): 13900 nM | GI50 (PC-3 prostate): 1710 nM | TGI (PC-3 prostate): 5410 nM | GI50 (M14 melanoma): 1500 nM | TGI (M14 melanoma): 3130 nM
